Reference: patent publication US20100260825A1, “Antifolates for the treatment of cardiovascular, inflammatory, neoplastic, autoimmune and related diseases in sublingual dosage units, film strips, or skin patches” (priority 2009, published 2010)

What was measured:
[1] = Hypothetical ADMEP and Phase-I-II study of compound 1 (Example-3); format: in vivo, humans; details: 1.5 mg from the gut to the plasma three times a day (4.5 mg/24 hours)
Procedure: Based on ADMEP (Absorption, Distribution, Metabolism, Excretion, Pharmacokinetics) studies conducted with analogous compound 1 in animals and humans during pre-clinical investigations and Phase-I-II clinical trials it was determined that an absorption of 1.0 mg of the drug from the gut to plasma three times a day from divided oral dosage units is optimal (3.0 mg/24 hours) in treating the antifolate responsive disease without causing significant toxicity. […] The bioavailability of this drug from the oral dosage unit used was only 10 percent as determined from a Phase-I clinical trial in healthy volunteers. […] The Bioavailability of this new medication was pH dependent due to solubility reasons and therefore it was possible that fluctuations in bioavailability might occur in certain patients as described in example-2. Thus in certain patients taking antacids or drugs such as certain prostaglandin to reduce acid secretion or other unknown factors the pH of the gut might increase to enhance the solubility and thereby increasing the bio-availability to the 15 to 20% range.

[2] = tested on: Human HCT-8 Colon Xenograft; experiment: Antitumor activity in nude mice bearing human HCT-8 colon xenograft; format: in vivo; details: i.v. push daily × 5
[3] = tested on: SR; experiment: Growth inhibition of human tumor cells in culture, SR (Leukemia); format: cell-based
Excerpt: (§1) The preceding data summarize the ability of compound 2 to inhibit 50% of the growth of selected tumor cells in culture. The values are expressed as Log10 GI50 values all of which are lower than 10^−8 M. In the same table a comparison is made of the respective values of TGI (Total Growth Inhibition) for 2 and methotrexate.

[4] = tested on: K562; experiment: Growth inhibition of human tumor cells in culture, K562 (Leukemia); format: cell-based
Excerpt: as §1

[5] = tested on: MOLT-4; experiment: Growth inhibition of human tumor cells in culture, MOLT-4 (Leukemia); format: cell-based
Excerpt: as §1

[6] = tested on: patients with rheumatoid arthritis; experiment: Clinical trial of M-Trex (Mobiletrex) in patients with rheumatoid arthritis, relative to methotrexate; format: in vivo, human; set-up: CRP: unit not given here; details: for CRP: plasma C-Reactive Protein
Excerpt: In 2002; Castaneda and M. Gopal Nair conducted the clinical trial of a metabolism-blocked antifolate Mobileterx in patients with rheumatoid arthritis to evaluate its efficacy relative to the well-known antifolate drug methotrexate. In this pilot study [O. Castaneda and M. Gopal Nair. [The J. Rheumatology.

[7] = tested on: RPMI 8226; experiment: Growth inhibition of human tumor cells in culture, RPMI 8226 (Leukemia); format: cell-based
Excerpt: as §1

[8] = tested on: MCF7-ADR-RES; experiment: Growth inhibition of human tumor cells in culture, MCF7-ADR-RES (Breast Cancer); format: cell-based
Excerpt: as §1

[9] = tested on: SF 539; experiment: Growth inhibition of human tumor cells in culture, SF 539 (CNS Cancer); format: cell-based
[10] = Toxicity (maximum tolerated dose), i.v. push daily × 5 in nude mice; format: in vivo; details: i.v. push daily × 5, nude mice bearing HCT-8 xenograft
[11] = tested on: selected tumor cells in culture; experiment: Growth inhibition of selected tumor cells in culture (summary); format: cell-based, Human; details: all selected tumor cell lines of the table; read-out: GI50 (inhibit 50% of the growth)
Excerpt: as §1

[12] = tested on: MCF-7; experiment: Growth inhibition of human tumor cells in culture, MCF-7 (Breast Cancer); format: cell-based
Excerpt: as §1

[13] = tested on: CCRF-CEM; experiment: Growth inhibition of human tumor cells in culture, CCRF-CEM (Leukemia); format: cell-based
Excerpt: as §1

[14] = tested on: patients with rheumatoid arthritis; experiment: Conventional therapy of rheumatoid arthritis with methotrexate in patients; format: in vivo, human
[15] = tested on: aldehyde oxidase; details: cited from earlier work
[16] = cited from earlier work
[17] = cited from earlier work; remark: listed apart in the source
[18] = Bioavailability / absorption of oral methotrexate in patients; format: in vivo, human; details: oral dosage form, group of arthritic patients (Example-2)
[19] = oral dosage form; cited from earlier work

## C=C(CC(NC(=O)c1ccc(CCc2ccc3nc(N)nc(N)c3c2)cc1)C(=O)O)C(=O)O (stereo not shown) [Compound 1, 4′-Methylene-5,8,10-trideazaaminopterin]
[1]
  toxicity: unacceptable GI and bone marrow toxicity

## C=C(CC(NC(=O)c1ccc(CCc2ccc3nc(N)nc(N)c3c2)cc1)C(=O)O)C(=O)O (stereo not shown) [Compound 2]
[2]; 4.0 mg/kg/day (MTD)
  MTGI (%) Maximum Tumor Growth Inhibition (% of control): 91.4 ± 2.2%
  T/C %: 623.08%
  TD (days) Tumor Doubling Time: 16.2 ± 3.2 days
[3]
  TGI (Total Growth Inhibition): <−8.00
[3]; Log10 of molar concentration
  Log10 GI50: <−8.00
[4]
  TGI (Total Growth Inhibition): <−8.00
[4]; Log10 of molar concentration
  Log10 GI50: <−8.00
[5]
  TGI (Total Growth Inhibition): −7.40
[5]; Log10 of molar concentration
  Log10 GI50: <−8.00
[6]; 4 wks
  ESR: 52.7
  HAQ: 1.8
  Pa. GA: 6.0
  Ph. GA: 6.2
  S. Joints: 5.6
  T. Joints: 10.2
  CRP: 22.1
[6]; 4 wks of treatment, rheumatoid arthritis patients
  Pain: 4.1
[6]; 8 wks
  ESR: 32.7
  HAQ: 1.6
  Pa. GA: 6.0
  Pain: 2.8
  Ph. GA: 5.0
  S. Joints: 3.5
  T. Joints: 7.3
  CRP: 20.7
[6]; 12 wks
  ESR: 38.3
  HAQ: 1.4
  Pa. GA: 5.0
  Pain: 2.2
  Ph. GA: 4.5
  S. Joints: 3.0
  T. Joints: 5.8
  CRP: 17.7
[6]; 16 wks
  ESR: 38.6
  HAQ: 1.4
  Pa. GA: 3.0
  Pain: 1.8
  Ph. GA: 3.0
  S. Joints: 2.9
  T. Joints: 5.8
  CRP: 13.6
[6]; as the treatment progressed
  plasma concentration of C-Reactive Protein (CRP): consistently decreased
[7]
  TGI (Total Growth Inhibition): −7.44
[7]; Log10 of molar concentration
  Log10 GI50: <−8.00
[8]
  TGI (Total Growth Inhibition): −7.26
[8]; Log10 of molar concentration
  Log10 GI50: <−8.00
[9]
  TGI (Total Growth Inhibition): −6.3
[9]; Log10 of molar concentration
  Log10 GI50: <−8.00
[10]
  Maximum Tolerated dose: M-Trex (4.0 mg/kg/day)
[11]
  GI50: < 10 nM
[12]
  TGI (Total Growth Inhibition): −6.32
[12]; Log10 of molar concentration
  Log10 GI50: <−8.00
[13]
  TGI (Total Growth Inhibition): <−8.00
[13]; Log10 of molar concentration
  Log10 GI50: <−8.00

## CN(Cc1cnc2nc(N)nc(N)c2n1)c1ccc(C(=O)N[C@@H](CCC(=O)O)C(=O)O)cc1 [Methotrexate, reference compound]
[14]; certain patient populations
  non-responders: up to 40%
[14]; some patients
  drug related toxicity: significant drug related toxicity including elevation of liver enzymes
[2]; 1.0 mg/kg/day (MTD)
  MTGI (%) Maximum Tumor Growth Inhibition (% of control): 30.0 ± 9.0%
  T/C %: 176.92%
  TD (days) Tumor Doubling Time: 4.6 ± 0.6 days
[15]
  aldehyde oxidase mediated oxidative deactivation: efficiently converted to its corresponding 7-hydroxymethotrexate
[16]
  solubility: pH dependent
[3]
  TGI (Total Growth Inhibition): −3.50
[17]; 60 mg weekly instead of 15 mg weekly, oral tablets, rheumatoid arthritis patient
  adverse effects of overdose: odynophagia, dysphagia and oesophagitis
[17]; weekly dose taken in error daily or on several days each week
  adverse effects of dosing error: severe unwanted effects, including neutropenia, hepatotoxicity and bone marrow suppression
[4]
  TGI (Total Growth Inhibition): −3.30
[5]
  TGI (Total Growth Inhibition): −3.55
[18]
  absorption: 20%
[19]
  bioavailability: 20-80%
[7]
  TGI (Total Growth Inhibition): −3.66
[9]
  TGI (Total Growth Inhibition): −3.66
[10]; mouse, in vivo, iv
  MTD at 5 days: 1 mg/kg/day
[13]
  TGI (Total Growth Inhibition): −3.77
